pKi: −log10 of the molar value.
Legend:
human σ2/TMEM97 receptor = molecular target: T1, human σ2/TMEM97 receptor (Homo sapiens, UniProt Q5BJF2); experiment: Binding assay to human σ2/TMEM97 receptor; details: transfected HEK-293 membranes, 10 nM [3H]-DTG, 25° C. 120 minutes; + may also stand for 1-50% inhibition at 1 or 10 μM; read-out: Binding σ-2 Ki
T1 construct: expressed in transfected cells; host or cells: HEK-293
Procedure, shortened: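 Membranes from transfected HEK-293 cells (15 µg) were incubated with 10 nM [3H]-DTG in 50 mM Tris-HCl pH 8.0 for 120 min at 25 °C, with 10 µM haloperidol defining non-specific binding. Filtration and scintillation counting followed. Compounds tested as % inhibition at 1 or 10 µM, or at five concentrations for Ki.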

human σ1 receptor = molecular target: T2, human σ1 receptor (Homo sapiens, UniProt Q99720); experiment: Human σ1 receptor radioligand assay; details: transfected HEK-293 membranes, 5 nM [3H](+)-pentazocine, 37° C. 120 minutes; + may also stand for 1-50% inhibition at 1 or 10 μM; read-out: Binding σ-1 Ki
T2 construct: expressed in transfected cells; host or cells: HEK-293
Procedure, shortened: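 Membranes (7 μg) were incubated with 5 nM [3H](+)-pentazocine in 50 mM Tris-HCl pH 8 for 120 min at 37° C. Non-specific binding was defined with 10 μM haloperidol. Values are % inhibition at 1 or 10 μM or Ki from five concentrations, read by filtration and scintillation counting.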

T2 sequence (Q99720 whole entry): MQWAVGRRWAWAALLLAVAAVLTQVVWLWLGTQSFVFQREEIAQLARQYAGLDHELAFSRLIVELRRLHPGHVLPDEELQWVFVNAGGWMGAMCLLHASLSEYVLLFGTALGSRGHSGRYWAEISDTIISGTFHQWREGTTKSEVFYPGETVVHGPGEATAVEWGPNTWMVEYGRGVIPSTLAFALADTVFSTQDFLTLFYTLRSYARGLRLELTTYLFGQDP
T1 sequence (Q5BJF2 whole entry): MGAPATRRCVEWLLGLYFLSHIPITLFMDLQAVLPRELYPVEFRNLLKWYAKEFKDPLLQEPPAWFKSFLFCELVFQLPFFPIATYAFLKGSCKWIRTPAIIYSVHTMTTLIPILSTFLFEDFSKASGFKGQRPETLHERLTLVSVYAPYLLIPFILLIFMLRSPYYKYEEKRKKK

Row | SMILES | pKi (human σ2/TMEM97 receptor) | pKi (human σ1 receptor)
1 | CC(C)CCN1CCC2(CC1)CCN(S(=O)(=O)c1ccc(N3CCC(F)(F)CC3)nc1)CC2 [Example 73, 3-((6-(4,4-Difluoropiperidin-1-yl)pyridin-3-yl)sulfonyl)-9-isopentyl-3,9-diazaspiro[5.5]undecane] | > 7.00 | 6.30 to 7.00
2 | O=S(=O)(c1ccc(N2CCC(F)(F)CC2)nc1)N1CCC2(CCN(Cc3ccccc3)CC2)CC1 [Example 74, 3-Denzyl-9-((6-(4,4-difluoropiperidin-1-yl)pyridin-3-yl)sulfonyl)-3,9-diazaspiro[5.5]undecane] | > 7.00 | 6.30 to 7.00
3 | CC(C)CCN1CCCC2(CCN(S(=O)(=O)c3ccc(N4CCC(F)(F)CC4)nc3)CC2)C1 [Example 77, 9-((6-(4,4-Difluoropiperidin-1-yl)pyridin-3-yl)sulfonyl)-2-isopentyl-2,9-diazaspiro[5.5]undecane] | > 7.00 | > 7.00
4 | O=S(=O)(c1ccc(N2CCC(F)(F)CC2)nc1)N1CCC2(CCN(Cc3ccccc3)CC2)C1 [Example 82, 8-Benzyl-2-((6-(4,4-difluoropiperidin-1-yl)pyridin-3-yl)sulfonyl)-2,8-diazaspiro[4.5]decane] | > 7.00 | > 7.00
5 | O=S(=O)(c1ccc(N2CCC(F)(F)CC2)nc1)N1CCC2(CCN(CC3CCOCC3)CC2)C1 [Example 83, 2-((6-(4,4-Difluoropiperidin-1-yl)pyridin-3-yl)sulfonyl)-8-((tetrahydro-2H-pyran-4-yl)methyl)-2,8-diazaspiro[4.5]decane] | > 7.00 | > 7.00
6 | O=S(=O)(c1ccc(N2CCC(F)(F)CC2)nc1)N1CCC2(CCCN(CC3CCOCC3)C2)CC1 [Example 84, 9-((6-(4,4-Difluoropiperidin-1-yl)pyridin-3-yl)sulfonyl)-2-((tetrahydro-2H-pyran-4-yl)methyl)-2,9-diazaspiro[5.5]undecane] | 6.30 to 7.00 | > 7.00
7 | CC(C)(C)CN1CCCC2(CCN(S(=O)(=O)c3ccc(N4CCC(F)(F)CC4)nc3)CC2)C1 [Example 85, 9-((6-(4,4-Difluoropiperidin-1-yl)pyridin-3-yl)sulfonyl)-2-neopentyl-2,9-diazaspiro[5.5]undecane] | 6.00 to 6.30 | > 7.00
8 | CN(Cc1ccccc1)C1CCN(S(=O)(=O)c2ccc(N3CCC(F)(F)CC3)nc2)CC1 [Example 86, N-Benzyl-1-((6-(4,4-difluoropiperidin-1-yl)pyridin-3-yl)sulfonyl)-N-methylpiperidin-4-amine] | > 7.00 | > 7.00
9 | CN(Cc1ccccc1)C1CCN(S(=O)(=O)c2ccc(N3CCC4(CCCO4)CC3)nc2)CC1 [Example 87, 1-((6-(1-Oxa-8-azaspiro[4.5]decan-8-yl)pyridin-3-yl)sulfonyl)-N-benzyl-N-methylpiperidin-4-amine] | > 7.00 | < 6.00
10 | CN(CCC(C)(C)C)[C@H]1CC[C@H](NS(=O)(=O)c2ccc(N3CCOCC3)nc2)CC1 [Example 89, N-((1r,4r)-4-((3,3-Dimethylbutyl)(methyl)amino)cyclo-hexyl)-6-morpholinopyridine-3-sulfonamide] | > 7.00 | 6.00 to 6.30
11 | CC(C)OCCN1CCC2(CC1)CCN(S(=O)(=O)c1ccc(C(F)(F)F)nc1)CC2 [Example 90, 3-(2-Isopropoxyethyl)-9-((6-(trifluoromethyl)pyridin-3-yl)sulfonyl)-3,9-diazaspiro[5.5]undecane] | > 7.00 | 6.30 to 7.00

The next lines start with the values.

Row | pKi (human σ2/TMEM97 receptor) | pKi (human σ1 receptor) | SMILES
12 | > 7.00 | 6.30 to 7.00 | CC(C)(C)CCN1CCC2(CC1)CCN(S(=O)(=O)c1ccc(N3CCC4(CCOC4)CC3)nc1)CC2 [Example 68, 8-(5-((9-(3,3-Dimethylbutyl)-3,9-diazaspiro[5.5]undecan-3-yl)sulfonyl)pyridin-2-yl)-2-oxa-8-azaspiro[4.5]decane]
13 | > 7.00 | 6.30 to 7.00 | CC(C)(C)CCN1CCC2(CC1)CCN(S(=O)(=O)c1ccc(N3CCS(=O)(=O)CC3)nc1)CC2 [Example 69, 4-(5-((9-(3,3-Dimethylbutyl)-3,9-diazaspiro[5.5]undecan-3-yl)sulfonyl)pyridin-2-yl)thiomorpholine 1,1-dioxide]
14 | > 7.00 | > 7.00 | CC(C)(C)CCN1CCC2(CC1)CCN(S(=O)(=O)c1ccc(N3CCC(F)(F)CC3)nc1)CC2 [Example 70, 3-((6-(4,4-Difluoropiperidin-1-yl)pyridin-3-yl)sulfonyl)-9-(3,3-dimethylbutyl)-3,9-diazaspiro[5.5]undecane]
15 | > 7.00 | > 7.00 | CC(C)(C)CCN1CCC2(CC1)CCN(S(=O)(=O)c1ccc(N3CCC4(CCCO4)CC3)nc1)CC2 [Example 71, 8-(5-((9-(3,3-Dimethylbutyl)-3,9-diazaspiro[5.5]undecan-3-yl)sulfonyl)pyridin-2-yl)-1-oxa-8-azaspiro[4.5]decane]
16 | > 7.00 | 6.00 to 6.30 | CC(C)(C)CCN1CCC2(CC1)CCN(S(=O)(=O)c1ccc(N3CCC4(CC3)COC4)nc1)CC2 [Example 72, 7-(5-((9-(3,3-Dimethylbutyl)-3,9-diazaspiro[5.5]undecan-3-yl)sulfonyl)pyridin-2-yl)-2-oxa-7-azaspiro[3.5]nonane]
17 | > 7.00 | > 7.00 | CC(C)(C)CCN1CCCC2(CCN(S(=O)(=O)c3ccc(N4CCOCC4)nc3)CC2)C1 [Example 75, 4-(5-((2-(3,3-Dimethylbutyl)-2,9-diazaspiro[5.5]undecan-9-yl)sulfonyl)pyridin-2-yl)morpholine]
18 | > 7.00 | > 7.00 | CC(C)(C)CCN1CCCC2(CCN(S(=O)(=O)c3ccc(N4CCC(F)(F)CC4)nc3)CC2)C1 [Example 76, 9-((6-(4,4-Difluoropiperidin-1-yl)pyridin-3-yl)sulfonyl)-2-(3,3-dimethylbutyl)-2,9-diazaspiro[5.5]undecane]
19 | > 7.00 | > 7.00 | CC(C)(C)CCN1CCCC2(CCN(S(=O)(=O)c3ccc(N4CCC5(CCCO5)CC4)nc3)CC2)C1 [Example 78, 8-(5-((2-(3,3-Dimethylbutyl)-2,9-diazaspiro[5.5]undecan-9-yl)sulfonyl)pyridin-2-yl)-1-oxa-8-azaspiro[4.5]decane]
20 | > 7.00 | 6.30 to 7.00 | CC(C)(C)CCN1CCC2(CC1)CCN(S(=O)(=O)c1ccc(N3CCOCC3)nc1)C2 [Example 79, 4-(5-((8-(3,3-Dimethylbutyl)-2,8-diazaspiro[4.5]decan-2-yl)sulfonyl)pyridin-2-yl)morpholine]
21 | > 7.00 | > 7.00 | CC(C)(C)CCN1CCC2(CC1)CCN(S(=O)(=O)c1ccc(N3CCC(F)(F)CC3)nc1)C2 [Example 80, 2-((6-(4,4-Difluoropiperidin-1-yl)pyridin-3-yl)sulfonyl)-8-(3,3-dimethylbutyl)-2,8-diazaspiro[4.5]decane]
22 | > 7.00 | > 7.00 | CC(C)(C)CCN1CCC2(CC1)CCN(S(=O)(=O)c1ccc(N3CCC4(CCCO4)CC3)nc1)C2 [Example 81, 8-(5-((8-(3,3-Dimethylbutyl)-2,8-diazaspiro[4.5]decan-2-yl)sulfonyl)pyridin-2-yl)-1-oxa-8-azaspiro[4.5]decane]
23 | > 7.00 | > 7.00 | CC(C)(C)CCN1CCC2(CCCN(S(=O)(=O)c3ccc(N4CCOCC4)nc3)C2)CC1 [Example 88, 4-(5-((9-(3,3-Dimethylbutyl)-2,9-diazaspiro[5.5]undecan-2-yl)sulfonyl)pyridin-2-yl)morpholine]
